{"source": "patent US20180022810A1", "about": "“USE OF CXCR3 INHIBITORS FOR PROTECTING AGAINST FETAL WASTAGE” (Children's Hospital Medical Center, priority 2015, published 2018)", "system": "C57BL/6 female mice bearing allogeneic pregnancy sired by Balb/c males", "experiment": "Fetal wastage and in utero Lm invasion after virulent Lm (strain 10403s) prenatal infection, allogeneic pregnancy", "assay_type": "in vivo", "details": "virulent Lm 10^4 CFU, ampicillin in drinking water"}
{"compound": "CC1(C)S[C@@H]2[C@H](NC(=O)[C@H](N)c3ccccc3)C(=O)N2[C@H]1C(=O)O", "note": "[ampicillin]", "values": [{"measurement": "benefits (protection against fetal wastage)", "setting": "treatment delayed until 24 hours post-infection", "result": "uniformly dissipated"}, {"measurement": "protection against fetal wastage", "setting": "treatment initiated 12 hours after infection", "result": "near complete protection"}]}
